Test results as given in patent US7714014B2, “Targeting GLI proteins in human cancer by small molecules” (The Regents of the University of California, priority 2005, dated 2010).
Entries after “also recorded” stand apart in the source; their conditions may differ.

Experiments:
[1] = tested on: Primary cultured NSCLC cells; assay: Apoptosis analysis (Annexin V FITC, flow cytometry); format: cell-based, human; details: 3 days
Method: Fresh cancer tissue and adjacent normal tissue from patients undergoing curative primary resection of their tumors were collected at the time of surgery (IRB approval H8714-15319-040), and immediately snap-frozen in liquid nitrogen. These tissue samples were kept at −170° C. in a liquid nitrogen freezer until further use. Primary tissue cultures were prepared as follows: Fresh cancer tissue was obtained with consent from patients undergoing resection, cut into small pieces (1-2 mm in diameter), and then digested with Collagenase A (Roche Applied Science, Indianapolis, Ind.) at room temperature for 2 hours according to manufacture's protocol. Single cells from the digestion were spun down and the cell pellets were washed twice using RPMI 1640 supplemented with 10% fetal bovine serum, penicillin (100 IU/ml) and streptomycin (100 μg/ml). Then, the cells were resuspended in the same medium and cultured in 6-well plates at 37° C. in a humid incubator with 5% CO2 until they were ready for further treatments.
Apoptosis was analyzed by using an Annexin V FITC Apoptosis Detection Kit (Biosource, Camarillo, Calif.), according to the manufacturer's protocol. After treatment with different small molecule compounds at various concentrations for about 3 days, cells were harvested by trypsinization, stained and immediately analyzed by flow cytometry (FACScan; Decton Dickinson, Franklin Lake, N.J.). Early apoptotic cells with exposed phosphatidylserine but intact cell membranes will bind to Annexin V-FITC, but not propidium iodide (PI). Cells in necrotic or late apoptotic stages will be labeled with both Annexin V-FITC and PI. “% apoptotic cells” or “% apoptosis” refers to the combined early and late apoptotic cells.
Flow cytometry was also used to examine apoptosis induced by molecule compounds of the invention. in primary cultured NSCLC cells freshly made from tissue samples. […] For example, app.

[2] = tested on: colon cancer cell lines LoVo and CaCO2; assay: Cell survival assay (crystal violet); format: cell-based, human; details: for cell killing: data not shown
Method: (§1) Typically, the small molecule compounds of the present invention were dissolved in DMSO at a concentration of 30 mM. The small molecule compounds were then tested under cell culture conditions at different concentrations ranging from 0, 10, 30, 50, to 100 uM. To determine cell survival after treatment, the cells were incubated with the small molecule compounds in 6-well plates for about 3 days. After removal of the cell culture medium, 1-ml of 0.5% crystal violet solution (prepared in 20% ethanol and 20% methanol) was added to stain the cells for 5 min. Then the crystal violet solution was rinsed clean with tap water. Cell survival was estimated based on the density of crystal stained plates.
Both, small molecule compounds FN1-5 and FN1-8 induced apoptosis in CaCO2 (Tables 2 and 3).

[3] = tested on: human Gremlin promoter in HEK 293T cells; assay: Gremlin promoter-luciferase reporter assay; format: cell-based; details: 30 μM, 18-24 hours
Method: One day before transfection, cells (1×10^5) were plated in 12-well plates with growth medium without antibiotics. When cells reached 80-90% of confluence they were co-transfected using 0.5 μg of each promoter construct in pGL3Basic vector and 0.025 μg pRL-TK Vector (Promega; Madison, Wis.) containing Renilla Luciferase as an internal control for the transformation efficiency. Lipofectamine 2000™ (Invitrogen Life Technologies) was used to mediate transfection for about 6 hours. Then the medium was replaced with fresh medium containing various small molecule compounds at a concentration of 30 μM, and the resulting cells were cultured for an additional 18-24 hours and subjected to luciferase assay. Briefly, cells were lysed in a lysis buffer and Firefly and Renilla Luciferase activities in cells of each well, were measured using Dual-Luciferase Assay System (Promega) and an illuminometer. The measured luciferase activities were normalized to pRL-TK Vector activity and were given relative to the basal activity of empty pGL3-Basic Vector, which was set to unity. The data shown represent mean values (±S.D.). All measurements were performed in triplicate and repeated in at least three independent experiments. […]

[4] = tested on: Dvl-3, cytosolic β-catenin, Survivin in colon cancer cells SW480, HT29, and CaCO2; assay: Western blot of canonical Wnt signaling components; format: cell-based, human; details: 30 μM, 2 days; for Dvl-3 and cytosolic beta-catenin levels (Western blot): SW480, HT29, CaCO2
Method: Whole proteins from cell cultures with or without treatments with small molecule compounds (30 μM for 2-3 days) were prepared using standard protocols (Pierce Biotechnology, Rockford, Ill.). Protein concentrations were measured using Bio-Rad Protein Assay reagent. Whole cell lysate protein (5-20 ug) were boiled for 5 min and separated by 10-20% SDS-PAGE. Proteins were transferred to an Immobilon-P membrane (Millipore Corp., Bedford, Mass.) using semi-dry transfer cell (Bio-Rad; Benicia, Calif.). The membranes were blocked with 5% nonfat milk powder and 0.1% Tween 20 in Tris-buffer saline overnight at 4° C. and then incubated with primary antibody for 1 h at room temperature. Membranes were washed in 5% nonfat milk powder and 0.1% Tween 20 in Tris-buffer saline for three 10-min periods. Horseradish peroxidase-conjugated goat anti-rabbit or donkey anti-mouse antibodies were used as secondary antibodies. Proteins were visualized with chemiluminescence luminol reagents (Santa Cruz Bio-technology). Anti-Dvl-3, and anti-Survivin, antibodies were from Santa Cruz Biotechnology (Santa Cruz, Calif.). Anti-Caspase3 antibody was from Oncogene (Cambridge, Mass.). Anti-β-Actin antibody was from Sigrna-Aldrich Corp. (St. Louis, Mo.). Anti-β-catenin antibody was from Transduction Laboratories (Lexington, Ky.). Anti-Cytochrome c antibody was from BD Biosciences (San Diego, Calif.). For detecting alteration of β-catenin cytosolic extracts were prepared and examined as described previously in the publications from our lab.

[5] = tested on: human breast cancer cell line MCF-7; assay: Cell survival assay (crystal violet); format: cell-based; details: for cell killing: MCF-7, 50 μM
Method: as §1
The cell-based cytotoxicity assay described herein was used to determine the effect of small molecule compounds FN1-5 and FN1-8 in the human breast cancer cell line MCF-7. Viability of MCF-7 cells was analyzed after treatment with 30 and 50 μM FN1-5 and after treatment with 10, 30, and 50 μM FN1-8.

| SMILES | % of apoptotic cells ([1]; 30 μM) | % of apoptotic cells ([1]; 50 μM) | cell killing [2] | Gremlin promoter activity [3] | Dvl-3 and cytosolic beta-catenin levels (Western blot) [4] | cell killing [5] | % of apoptotic cells ([1]; 10 μM) | cell killing potency compared with FN1-5 [2] | Survivin level (Western blot) [4] | Dvl-3 and cytosolic β-catenin levels (Western blot) ([4]; HT29 cells only) | cell killing potency compared with FN1-5 ([5]; MCF-7) |
| --- | --- | --- | --- | --- | --- | --- | --- | --- | --- | --- | --- |
| O=C(NCCCCCO)C1C(c2ccccc2)=NN(c2ccccc2)C1c1ccccc1 (centres unmarked) [FN1-5, N-(5-Hydroxypentyl)-1,3,5-triphenyl-4,5-dihydro-pyrazole-4-carboxyamide] | 11.2% | 19.8% | dramatic cell killing | inactive | suppress canonical Wnt signaling | dramatic cell killing | – | – | – | – | – |
| O=C(NCCc1ccc(O)cc1)C1C(c2ccccc2)=NN(c2ccccc2)C1c1ccccc1 (centres unmarked) [FN1-8, N-(2-(4-Hydroxyphenyl)ethyl)-1,3,5-triphenyl-4,5-dihydro-pyrazole-4-carboxyamide] | 13.1% | 58.0% | dramatic cell killing | inactive | dramatic down-regulation; also recorded: suppress canonical Wnt signaling | dramatic cell killing | 9.8% | more potent than FN1-5 | down-regulated | no down-regulation | more potent |
